From patent US20180251431A1 (VERTEX PHARMACEUTICALS INCORPORATED, priority 2016, published 2018)

Tested on: HEK293 cells
Assay: HEK293 VLCFA-LPC IC50 determination (13C-labeled C26:0 LPC by UHPLC/MS)
Format: cell-based, human
Details: Homo sapiens, HEK293, 48 h, average of one or more replicates; 13C-labeled C26:0 LPC, 48 hours; read-out: Average HEK293 IC50
Outline: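 Suspension HEK293 cells (final 0.5 million/mL after mixing with equal volume) incubated 48 hours with compound plus 13C-acetate (1.0 mg/mL in added media), shaking at 37° C. Lipids extracted with hexane/isopropanol or methanol, C13:0 LPC standard. UHPLC/MS of 13C-labeled C26:0 LPC (638.500/104.100 m/z); IC50 by four-parameter fit.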

Compared with O=C(Nc1ccn(-c2ccc(F)nc2)n1)C1(c2ccccc2F)CC1 [Compound 377, 1-(2-fluorophenyl)-N-[1-(6-fluoro-3-pyridyl)pyrazol-3-yl]cyclopropanecarboxamide], Nc1ccc(-n2ccc(NC(=O)C3(c4ccccc4F)CC3)n2)cc1F [Compound 387, N-[1-(4-amino-3-fluoro-phenyl)pyrazol-3-yl]-1-(2-fluorophenyl)cyclopropanecarboxamide] is 48-fold higher in IC50: 23 nM for the first, 1100 nM for the second. The first is the more potent here.

First: O=C(Nc1ccn(-c2ccnc(F)c2)n1)C1(c2ccccc2)CC1(Cl)Cl (single isomer, unassigned) [Compound 371]
Second: COc1cc(-n2ccc(NC(=O)C3(c4ccccc4F)CC3)n2)cnn1 [Compound 447, 1-(2-fluorophenyl)-N-[1-(6-methoxypyridazin-4-yl)pyrazol-3-yl]cyclopropanecarboxamide]
The IC50 of the first is lower: 720 nM for the first, over 5000 nM for the second. The first is the more potent here.

First: O=C(Nc1ccn(-c2cnns2)n1)C1(c2ccccc2F)CC1 [Compound 388, 1-(2-fluorophenyl)-N-[1-(thiadiazol-5-yl)pyrazol-3-yl]cyclopropanecarboxamide]
Second: Cc1nnc(-n2ccc(NC(=O)C3(c4ccccc4F)CC3)n2)s1 [Compound 404, 1-(2-fluorophenyl)-N-[1-(5-methyl-1,3,4-thiadiazol-2-yl)pyrazol-3-yl]cyclopropanecarboxamide]
The IC50 of the first is lower: 37 nM for the first, over 5000 nM for the second.

Same assay, conditions: Homo sapiens, HEK293, HEK293 cells; average of one or more replicates; read-out: Average HEK293 IC50

Going from Cn1ncnc1-n1ccc(NC(=O)C2(c3ccccc3F)CC2)n1 [Compound 415, 1-(2-fluorophenyl)-N-[1-(2-methyl-1,2,4-triazol-3-yl)pyrazol-3-yl]cyclopropanecarboxamide] to Cn1ccc(-n2ccc(NC(=O)C3(c4ccccc4F)CC3)n2)n1 [Compound 229, 1-(2-fluorophenyl)-N-[1-(1-methylpyrazol-3-yl)pyrazol-3-yl]cyclopropanecarboxamide], the IC50 rises from 90 nM to 3500 nM (39-fold). The first is the more potent here.

First: O=C(Nc1ccn(-c2ccccc2)n1)C1(c2ccccc2)CC1 [Compound 2, 1-phenyl-N-(1-phenyl-1H-pyrazol-3-yl)cyclopropane-1-carboxamide]
Second: O=C(Nc1ccn(-c2ccccc2F)n1)C1(c2ccccc2)CC1 [Compound 188, N-[1-(2-fluorophenyl)pyrazol-3-yl]-1-phenyl-cyclopropanecarboxamide]
The IC50 of the first is 7-fold lower: 20 nM for the first, 140 nM for the second. The first is the more potent here.

First: O=C(Cc1ccc(F)c(F)c1)Nc1ccn(-c2ccccc2)n1 [Compound 57, 2-(3,4-difluorophenyl)-N-(1-phenylpyrazol-3-yl)acetamide]
Second: O=C(Cc1c(F)cc(F)cc1F)Nc1ccn(-c2ccccc2)n1 [Compound 76, N-(1-phenylpyrazol-3-yl)-2-(2,4,6-trifluorophenyl)acetamide]
The IC50 of the first is higher: over 5000 nM for the first, 72 nM for the second. The second is the more potent here.

Going from O=C(Nc1ccn(-c2ccccc2)n1)C1(c2cc(F)cc(F)c2)CC1 [Compound 271, 1-(3,5-difluorophenyl)-N-(1-phenylpyrazol-3-yl)cyclopropanecarboxamide] to O=C(Nc1ccn(-c2ccccc2)n1)C1(c2ccc(F)cc2)CC1 [Compound 13, 1-(4-fluorophenyl)-N-(1-phenylpyrazol-3-yl)cyclopropanecarboxamide], the IC50 falls from 650 nM to 82 nM (7.9-fold).

O=C(Cc1ccncc1)Nc1ccn(-c2ccccc2)n1 [Compound 38, N-(1-phenylpyrazol-3-yl)-2-(4-pyridyl)acetamide] and O=C(Cc1ccccc1)Nc1ccn(-c2ccc(Cl)cc2)n1 [Compound 134, N-[1-(4-chlorophenyl)pyrazol-3-yl]-2-phenyl-acetamide] cannot be ordered by IC50: over 5000 nM for the first, over 5000 nM for the second.

Cc1cc(-n2ccc(NC(=O)Cc3ccc(F)cc3)n2)ccn1 [Compound 111, 2-(4-fluorophenyl)-N-[1-(2-methyl-4-pyridyl)pyrazol-3-yl]acetamide] and O=C(Cc1cncnc1)Nc1ccn(-c2ccnc(F)c2)n1 [Compound 236, N-[1-(2-fluoro-4-pyridyl)pyrazol-3-yl]-2-pyrimidin-5-yl-acetamide] cannot be ordered by IC50: over 10000 nM for the first, over 5000 nM for the second.

Compared with O=C(Nc1ccn(-c2ccnc(F)c2)n1)C1(c2ccccc2)COC1 [Compound 149, N-[1-(2-fluoro-4-pyridyl)pyrazol-3-yl]-3-phenyl-oxetane-3-carboxamide], Cc1cccc(C2(C(=O)Nc3ccn(-c4ccnc(F)c4)n3)CC2)c1 [Compound 245, N-[1-(2-fluoro-4-pyridyl)pyrazol-3-yl]-1-(m-tolyl)cyclopropanecarboxamide] is 2.5-fold lower in IC50: 660 nM for the first, 260 nM for the second.

First: O=C(Nc1ccn(-c2ccncc2)n1)C1(c2cnccn2)CC1 [Compound 495, 1-pyrazin-2-yl-N-[1-(4-pyridyl)pyrazol-3-yl]cyclopropanecarboxamide]
Second: O=C(Nc1ccn(-c2ccncc2)n1)C1(c2ccccc2F)CC1 [Compound 101, 1-(2-fluorophenyl)-N-[1-(4-pyridyl)pyrazol-3-yl]cyclopropanecarboxamide]
The IC50 of the first is higher: over 5000 nM for the first, 75 nM for the second.

CC(C)Cc1ccc(C(C)C(=O)Nc2ccn(-c3ccccc3)n2)cc1 (stereo not shown) [Compound 78, 2-(4-isobutylphenyl)-N-(1-phenylpyrazol-3-yl)propanamide] and CSCC(C(=O)Nc1ccn(-c2ccccc2)n1)c1ccccc1 (stereo not shown) [Compound 170, 3-methylsulfanyl-2-phenyl-N-(1-phenylpyrazol-3-yl)propanamide] cannot be ordered by IC50: over 5000 nM for the first, over 5000 nM for the second.

First: COc1ccncc1-n1ccc(NC(=O)C2(c3ccccc3F)CC2)n1 [Compound 469, 1-(2-fluorophenyl)-N-[1-(4-methoxy-3-pyridyl)pyrazol-3-yl]cyclopropanecarboxamide]
Second: O=C(Nc1ccn(-c2ccnnc2)n1)C1(c2ccccc2F)CC1 [Compound 202, 1-(2-fluorophenyl)-N-(1-pyridazin-4-ylpyrazol-3-yl)cyclopropanecarboxamide]
The IC50 of the first is higher: over 2000 nM for the first, 95 nM for the second.

First: CCOc1ccc(C2(C(=O)Nc3ccn(-c4ccnc(F)c4)n3)CC2)cc1 [Compound 246, 1-(4-ethoxyphenyl)-N-[1-(2-fluoro-4-pyridyl)pyrazol-3-yl]cyclopropanecarboxamide]
Second: COc1ccc(F)c(C2(C(=O)Nc3ccn(-c4ccnc(F)c4)n3)CC2)c1 [Compound 314, 1-(2-fluoro-5-methoxy-phenyl)-N-[1-(2-fluoro-4-pyridyl)pyrazol-3-yl]cyclopropanecarboxamide]
The IC50 of the first is 49-fold higher: 2800 nM for the first, 57 nM for the second.

First: O=C(Cc1ccccc1F)Nc1ccn(-c2ccccc2F)n1 [Compound 187, 2-(2-fluorophenyl)-N-[1-(2-fluorophenyl)pyrazol-3-yl]acetamide]
Second: O=C(Cc1ccccc1)Nc1ccn(-c2ccncc2F)n1 [Compound 140, N-[1-(3-fluoro-4-pyridyl)pyrazol-3-yl]-2-phenyl-acetamide]
The IC50 of the first is 2.1-fold lower: 520 nM for the first, 1100 nM for the second. The first is the more potent here.

Going from O=C(Nc1ccn(-c2cc(F)cc(F)c2)n1)C1(c2ncccn2)CC1 [Compound 534, N-[1-(3,5-difluorophenyl)pyrazol-3-yl]-1-pyrimidin-2-yl-cyclopropanecarboxamide] to O=C(Nc1ccn(-c2cncc(F)c2)n1)C1(c2ccccc2F)CC1 [Compound 180, 1-(2-fluorophenyl)-N-[1-(5-fluoro-3-pyridyl)pyrazol-3-yl]cyclopropanecarboxamide], the IC50 falls from over 5000 nM to 20 nM. The second is the more potent here.

First: O=C(Nc1ccn(-c2ccc(F)c(F)c2)n1)C1(c2cccs2)CC1 [Compound 479, N-[1-(3,4-difluorophenyl)pyrazol-3-yl]-1-(2-thienyl)cyclopropanecarboxamide]
Second: O=C(Nc1ccn(-c2cc(F)ccc2F)n1)C1(c2ccccc2F)CC1 [Compound 161, N-[1-(2,5-difluorophenyl)pyrazol-3-yl]-1-(2-fluorophenyl)cyclopropanecarboxamide]
The IC50 of the first is 5.2-fold lower: 190 nM for the first, 980 nM for the second.

Going from O=C(Nc1ccn(-c2ccccc2)n1)C1(c2ccc(F)cn2)CC1 [Compound 475, 1-(5-fluoro-2-pyridyl)-N-(1-phenylpyrazol-3-yl)cyclopropanecarboxamide] to O=C(Nc1ccn(-c2cccc(F)c2)n1)C1(c2ccccc2)CC1 [Compound 125, N-[1-(3-fluorophenyl)pyrazol-3-yl]-1-phenyl-cyclopropanecarboxamide], the IC50 falls from 270 nM to 71 nM (3.8-fold). The second is the more potent here.

CC(C)(C(=O)Nc1ccn(-c2ccccc2)n1)c1ccccc1F [Compound 296, 2-(2-fluorophenyl)-2-methyl-N-(1-phenylpyrazol-3-yl)propanamide] and O=C(Nc1ccn(-c2ccccc2)n1)C1(c2cccnc2)CC1 [Compound 224, N-(1-phenylpyrazol-3-yl)-1-(3-pyridyl)cyclopropanecarboxamide] are within 1.5-fold of each other in IC50: 1700 nM for the first, 1400 nM for the second.

Going from O=C(Nc1ccn(-c2cccnn2)n1)C1(c2ccccc2F)CC1 [Compound 239, 1-(2-fluorophenyl)-N-(1-pyridazin-3-ylpyrazol-3-yl)cyclopropanecarboxamide] to O=C(Nc1ccn(-c2ccnc(F)c2)n1)C1(c2ccc3c(c2)OC(F)(F)O3)CC1 [Compound 285, 1-(2,2-difluoro-1,3-benzodioxol-5-yl)-N-[1-(2-fluoro-4-pyridyl)pyrazol-3-yl]cyclopropanecarboxamide], the IC50 falls from 300 nM to 40 nM (7.5-fold). The second is the more potent here.

Going from CC1CC1(C(=O)Nc1ccn(-c2cncc(Cl)c2)n1)c1ncccc1F (stereo not shown) [Compound 504, N-[1-(5-chloro-3-pyridyl)pyrazol-3-yl]-1-(3-fluoro-2-pyridyl)-2-methyl-cyclopropanecarboxamide] to CC1(C)CC1(C(=O)Nc1ccn(-c2cncc(Cl)c2)n1)c1ncccc1F (stereo not shown) [Compound 512, N-[1-(5-chloro-3-pyridyl)pyrazol-3-yl]-1-(3-fluoro-2-pyridyl)-2,2-dimethyl-cyclopropanecarboxamide], the IC50 rises from 120 nM to 1100 nM (9.2-fold). The first is the more potent here.

Same assay, conditions: average of one or more replicates; 13C-labeled C26:0 LPC, 48 hours; read-out: Average HEK293 IC50

For O=C(Nc1ccn(-c2cncc(F)c2)n1)C1(c2ccccc2)CC1(F)F (single isomer, unassigned) [Compound 436], the IC50 was 180 nM.
